According to patent US9073929B2, “Aldosterone synthase inhibitors” (ElexoPharm GmbH, priority 2011, dated 2015):

Key:
Assay type in all cases: cell-based
[1] = target: T1, human CYP11B1 (Homo sapiens, UniProt P15538); experiment: V79-Human-CYP11B1 cell assay, modified protocol (280,000 cells/mL); details: 0.30 μl inhibitor
T1 construct: expressed in transfected cells; host or cells: V79MZh11B1 cells
T1 sequence (P15538 25-503): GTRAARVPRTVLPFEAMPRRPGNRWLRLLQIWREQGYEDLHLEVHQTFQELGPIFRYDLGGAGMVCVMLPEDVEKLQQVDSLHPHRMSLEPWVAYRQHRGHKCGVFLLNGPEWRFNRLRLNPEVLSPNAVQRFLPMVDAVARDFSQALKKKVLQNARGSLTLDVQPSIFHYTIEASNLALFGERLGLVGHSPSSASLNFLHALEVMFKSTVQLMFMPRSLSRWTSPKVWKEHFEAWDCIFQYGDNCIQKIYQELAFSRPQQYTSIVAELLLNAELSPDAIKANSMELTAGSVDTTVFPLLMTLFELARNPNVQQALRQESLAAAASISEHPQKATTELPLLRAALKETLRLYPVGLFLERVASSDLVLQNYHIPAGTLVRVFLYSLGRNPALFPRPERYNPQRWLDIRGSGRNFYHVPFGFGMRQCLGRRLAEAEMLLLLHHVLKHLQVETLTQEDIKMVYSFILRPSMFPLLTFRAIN
Method: (§1) V79 cell lines stably expressing the either the human CYP11B2 or the human CYP11B1 enzyme were generated using a standard transfection protocol. V79 cells were transfected with plasmids pTriEx3-Hygro-hCyp11B2 or pTriEx3-Hygro-hCyp11B1 using Lipofectamine2000 reagent. V79 cells that stably express the human CYP11B2 or human CYP11B1 enzyme were selected for and maintained in DMEM supplemented with 10% FBS and 400 μg/mL hygromycin for ˜2 weeks. Single cell clones were generated by infinite dilution in DMEM supplemented with 10% FBS and 400 μg/mL hygromycin until single colonies were obtained. […] For testing of inhibitors, cells were harvested at 80% confluency with 0.5% Trypsan-EDTA, washed once in PBS, and reconstituted in DMEM+0.1% BSA media at a cell concentration of 400,000 cells/mL. 25 μl of cells were added to a 384 well tissue culture treated plate and mixed with 0.25 μl of inhibitor or DMSO (1% final DMSO concentration) for 1 hour at 37° C., 5% CO2. After pre-incubation with inhibitor, the reaction was initiated by adding 5 μl of substrate (final concentration of 125 nM 11-deoxycorticosterone for the CYP11B2 assay or 250 nM 11-deoxycortisol for the CYP11B1 assay). The reaction was carried out for 3 hours at 37° C., 5% CO2 and was stopped by harvesting the supernatants. The amount of product in the supernatant (aldosterone for CYP11B2 assay and cortisol for the CYP11B1 assay) was measured using HTRF-based assay kit (Aldosterone HTRF-CisBio#64ALDPEB, Cortisol HTRF-CisBio #631DC002-CORT). IC50's for the inhibitor were determined by plotting the amount of product formed against the concentration of inhibitor using sigmoidal dose-response curve (variable slope) fit in GraphPad.
(§2) For the CYP11B2 assay, cells were reconstituted in DMEM+0.1% BSA media at a cell concentration of 600,000 cells/mL and for the CYP11B1 assay cells were reconstituted in DMEM+0.1% BSA media at a cell concentration of 280,000 cells/mL. 25 μl of cells were added to a 384 well tissue culture treated plate and mixed with 0.30 μl of inhibitor or DMSO (1% final DMSO concentration) for 1 hour at 37° C., 5% CO2.

[2] = target: T2, human CYP11B2 (Homo sapiens, UniProt P19099); experiment: V79-Human-CYP11B2 cell assay, modified protocol (600,000 cells/mL); details: 0.30 μl inhibitor
T2 construct: expressed in transfected cells; host or cells: V79 cells (clone V79-hCYP11B2-CLE9)
T2 sequence (P19099 25-503): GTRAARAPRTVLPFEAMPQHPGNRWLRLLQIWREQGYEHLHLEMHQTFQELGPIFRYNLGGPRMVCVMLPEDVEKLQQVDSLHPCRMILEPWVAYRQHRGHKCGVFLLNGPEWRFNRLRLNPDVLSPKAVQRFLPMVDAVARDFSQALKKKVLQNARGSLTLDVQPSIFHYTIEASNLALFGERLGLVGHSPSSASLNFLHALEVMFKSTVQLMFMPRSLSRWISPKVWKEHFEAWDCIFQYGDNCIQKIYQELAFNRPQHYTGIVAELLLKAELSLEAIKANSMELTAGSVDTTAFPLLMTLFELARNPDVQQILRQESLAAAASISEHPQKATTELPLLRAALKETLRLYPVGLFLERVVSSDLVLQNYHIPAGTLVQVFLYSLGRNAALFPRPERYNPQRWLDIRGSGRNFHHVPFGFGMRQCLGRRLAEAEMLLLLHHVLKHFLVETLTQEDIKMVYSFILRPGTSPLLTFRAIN
Method: as §1, §2

[3] = target: T2, human CYP11B2; experiment: V79MZh11B2 cell assay, [3H]-deoxycorticosterone, HPLC radioflow detection; details: V79MZh11B2 cells, 100 nM deoxycorticosterone, 50 min, read-out: V79 Human CYP11B2 IC50
Method: (§3) Compounds of the Examples 157-170 were assayed for V79-Human-CYP11B2 and V79-Human-CYP11B1 by modifying the protocol described in J. Steroid Biochem. Mol. Biol. 81; 173-179 (2002). V79MZh11B1 and V79MZh11B2 cells (8×10^5 cells/well) were grown on 24-well culture plates until confluence. Before testing, the DMEM culture medium was removed and 450 μl of fresh DMEM containing the inhibitor was added to each well. After a preincubation step of 60 min at 37° C., the reaction was started by the addition of 50 μl of DMEM in which the substrate deoxycorticosterone (containing 0.15 μCi of [1,2-3H]-deoxycorticosterone in ethanol, final test concentration 100 nM) was dissolved. Incubation times were 25 min for V79MZh11B1 and 50 min for V79MZh11B2 cells at 37° C., respectively. The enzyme reactions were stopped by extracting the supernatant with ethyl acetate. Samples were centrifuged (10.000 g, 5 min) and the solvent was pipetted into fresh cups. After evaporation of the solvent, the steroids were redissolved in 40 μl of […] and analyzed by HPLC. Detection and quantification of the steroids were performed using a radioflow detector. […] The inhibitor concentrations were all in the linear range of the dose-response-curves, so that the coefficients of correlation were at least 0.95 for each determination. The final IC50 value was estimated as the average of three or four independent IC50 values and a selectivity factor corresponding to the ratio between the IC50 values of CYP11B1 and CYP11B2 was calculated for each substance.

[4] = target: T1, human CYP11B1; experiment: V79MZh11B1 cell assay, [3H]-deoxycorticosterone, HPLC radioflow detection; details: V79MZh11B1 cells, 100 nM deoxycorticosterone, 25 min, read-out: V79 Human CYP11B1 IC50
Method: as §3

| IC50 [1] [nM] | IC50 [2] [nM] | IC50 [3] [nM] | IC50 [4] [nM] | Compound |
| --- | --- | --- | --- | --- |
|  |  | 28.3 | 3910 | Cc1nnc2n1-c1c(F)cc(-c3cncc(C(C)O)c3)cc1CC2 (stereo not shown) [Example 159, 1-[5-(9-fluoro-1-methyl-4,5-dihydro-[1,2,4]triazolo[4,3-a]quinolin-7-yl)-pyridin-3-yl]-ethanol] |
|  |  | 87.6 | 6970 | CC(=O)c1cncc(-c2cc(F)c3c(c2)CCc2nnc(C)n2-3)c1 [Example 160, 1-[5-(9-fluoro-1-methyl-4,5-dihydro-[1,2,4]triazolo[4,3-a]quinolin-7-yl)-pyridin-3-yl]-ethanone] |
|  |  | 244 | 7900 | Fc1cc2c(cc1-c1cccnc1)CCc1nncn1-2 [Example 168, 8-fluoro-7-pyridin-3-yl-4,5-dihydro-[1,2,4]triazolo[4,3-a]quinoline] |
|  |  | 131 | 12600 | Cc1nnc2n1-c1cc(F)c(-c3cccnc3)cc1CC2 [Example 167, 8-fluoro-1-methyl-7-pyridin-3-yl-4,5-dihydro-[1,2,4]triazolo[4,3-a]quinoline] |
|  |  | 2.2 | 110 | Cc1nnc2n1-c1c(F)cc(-c3cncc4ccccc34)cc1CC2 [Example 164, 9-fluoro-7-isoquinolin-4-yl-1-methyl-4,5-dihydro-[1,2,4]triazolo[4,3-a]quinoline] |
|  |  | 7.1 | 428 | Cc1nnc2n1-c1c(F)cc(-c3cncc(-c4ccccc4)c3)cc1CC2 [Example 162, 9-fluoro-1-methyl-7-(5-phenyl-pyridin-3-yl)-4,5-dihydro-[1,2,4]triazolo[4,3-a]quinoline] |
|  |  | 57.2 | 3570 | Cc1nnc2n1-c1c(F)cc(-c3cncc(C(F)(F)F)c3)cc1CC2 [Example 161, 9-fluoro-1-methyl-7-(5-trifluoromethyl-pyridin-3-yl)-4,5-dihydro-[1,2,4]triazolo [4,3-a]quinoline] |
|  |  | 172 | 16100 | Fc1cc(-c2cccnc2)cc2c1-n1cnnc1CC2 [Example 166, 9-fluoro-7-pyridin-3-yl-4,5-dihydro-[1,2,4]triazolo[4,3-a]quinoline] |
|  |  | 41 | 17300 | CCc1c(F)cncc1-c1cc2c(c(F)c1F)-n1c(C)nnc1CC2 [Example 170, 7-(4-ethyl-5-fluoropyridin-3-yl)-8,9-difluoro-1-methyl-4,5-dihydro-[1,2,4]triazolo[4,3-a]quinoline] |
|  |  | 11 | 3070 | CCc1c(F)cncc1-c1cc(F)c2c(c1)CCc1nnc(C)n1-2 [Example 169, 7-(4-ethyl-5-fluoropyridin-3-yl)-9-fluoro-1-methyl-4,5-dihydro-[1,2,4]triazolo[4,3-a]quinoline] |
|  |  | 4.2 | 1770 | Cc1ccncc1-c1cc(F)c2c(c1)CCc1nnc(C)n1-2 [Example 163, 9-fluoro-1-methyl-7-(4-methyl-pyridin-3-yl)-4,5-dihydro-[1,2,4]triazolo[4,3-a]quinoline] |
|  |  | 62.5 | 17000 | Cc1nnc2n1-c1c(F)cc(-c3cccnc3)cc1CC2 [Example 165, 9-fluoro-1-methyl-7-pyridin-3-yl-4,5-dihydro-[1,2,4]triazolo[4,3-a]quinoline] |

Continued, compound first:

| Compound | IC50 [1] [nM] | IC50 [2] [nM] | IC50 [3] [nM] | IC50 [4] [nM] |
| --- | --- | --- | --- | --- |
| Cc1nnc2n1-c1cc(Cl)c(-c3cncc4ccccc34)cc1CC2 [Example 113, 8-chloro-7-(isoquinolin-4-yl)-1-methyl-4,5-dihydro-[1,2,4]triazolo[4,3-a]quinoline] | > 10000 | 17 |  |  |
| Cc1nnc2n1-c1c(Cl)cc(-c3cnccc3C(F)(F)F)cc1CC2 [Example 83, 9-chloro-1-methyl-7-(4-(trifluoromethyl)pyridin-3-yl)-4,5-dihydro-[1,2,4] triazolo[4,3-a]quinoline] | > 30000 | 22 |  |  |
| Cc1nnc2n1-c1c(Cl)cc(-c3cnccc3C3CC3)cc1CC2 [Example 96, 9-chloro-7-(4-cyclopropylpyridin-3-yl)-1-methyl-4,5-dihydro-[1,2,4]triazolo[4,3-a]quinoline] | 6930 | 48 |  |  |
| 9-chloro-7-(5-chloro-4- methylpyridin-3-yl)-1- methyl-4,5-dihydro- [1,2,4]triazolo[4,3- a]quinoline [Example 93] | 765 | 6 |  |  |
| COc1cncc(-c2cc(F)c3c(c2)CCc2nnc(C)n2-3)c1 [Example 158, 9-fluoro-7-(5-methoxy-pyridin-3-yl)-1-methyl-4,5-dihydro-[1,2,4]triazolo[4,3-a] quinoline] |  |  | 20.3 | 1810 |
| CCc1c(F)cncc1-c1cc(Cl)c2c(c1)CCc1nnc(C)n1-2 [Example 80, 9-chloro-7-(4-ethyl-5-fluoropyridin-3-yl)-1-methyl-4,5-dihydro[1,2,4]triazolo-[4,3-a]quinoline] | 3140 | 7 |  |  |
| COc1c(C)cncc1-c1cc2c(cc1F)-n1c(C)nnc1CC2 [Example 122, 8-fluoro-7-(4-methoxy-5-methylpyridin-3-yl)-1-methyl-4,5-dihydro-[1,2,4]triazolo[4,3-a]quinoline] | > 10000 | 32 |  |  |
| Cc1nnc2n1-c1c(F)cc(-c3cncc(F)c3)cc1CC2 [Example 157, 9-fluoro-7-(5-fluoro-pyridin-3-yl)-1-methyl-4,5-dihydro-[1,2,4]triazolo[4,3-a]quinoline] |  |  | 89.7 | 29500 |
